Holding throughout (test): relative viability (nuclei count vs DMSO), 5 days (fraction); higher = more cells survive
Compound in the experiment “EHT 1864 + Phenformin”: C1COCCN1CC2=CC(=O)C(=CO2)OCCCCCSC3=C4C=CC(=CC4=NC=C3)C(F)(F)F [EHT 1864] + N=C(N)NC(=N)NCCc1ccccc1 [Phenformin] (partner 250 µM)
In short, it runs like this: (§1)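 Lung cancer cell lines in 1536-well plates were dosed by pin tool the day after seeding, either with one drug alone or with a fixed anchor-drug dose plus five library-drug doses (not always all listed) in √10 steps. After 5 days, cells were fixed and their nuclei stained in one step (final 0.05% Triton X-100, 1% formaldehyde, 1 ug/ml Hoechst), then counted on 4× images. Relative viability is the nuclei count in treated wells divided by that in vehicle wells. Values are medians of duplicate plates.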

Compound in the experiment “EHT 1864 + Navitoclax”: C1COCCN1CC2=CC(=O)C(=CO2)OCCCCCSC3=C4C=CC(=CC4=NC=C3)C(F)(F)F [EHT 1864] + CC1(C)CCC(c2ccc(Cl)cc2)=C(CN2CCN(c3ccc(C(=O)NS(=O)(=O)c4ccc(N[C@H](CCN5CCOCC5)CSc5ccccc5)c(S(=O)(=O)C(F)(F)F)c4)cc3)CC2)C1 [Navitoclax] (partner 0.5 µM)
In short, it runs like this:
as §1

Compound in the experiment “EHT 1864 + Pemetrexed”: C1COCCN1CC2=CC(=O)C(=CO2)OCCCCCSC3=C4C=CC(=CC4=NC=C3)C(F)(F)F [EHT 1864] + Nc1nc2[nH]cc(CCc3ccc(C(=O)N[C@@H](CCC(=O)O)C(=O)O)cc3)c2c(=O)[nH]1 [Pemetrexed] (partner 0.2 µM)
In short, it runs like this: as §1

Compound in the experiment “EHT 1864 + Trametinib”: C1COCCN1CC2=CC(=O)C(=CO2)OCCCCCSC3=C4C=CC(=CC4=NC=C3)C(F)(F)F [EHT 1864] + CC(=O)Nc1cccc(-n2c(=O)n(C3CC3)c(=O)c3c(Nc4ccc(I)cc4F)n(C)c(=O)c(C)c32)c1 [Trametinib] (partner 0.02 µM)
The procedure, abridged:
as §1

In the case of NCI-H441, the relative viability with EHT 1864 + Phenformin (first compound 0.04 µM) is 0.845; with EHT 1864 + Phenformin (first compound 0.1265 µM), 0.604; in the experiment with EHT 1864 + Phenformin (first compound 0.4 µM), 0.717; with EHT 1864 + Phenformin (first compound 1.265 µM), 0.853; in the experiment with EHT 1864 + Phenformin (first compound 4 µM) it was 0.932; in the experiment with EHT 1864 + Navitoclax (first compound 0.04 µM), 0.542. Further, the relative viability with EHT 1864 + Navitoclax (first compound 0.1265 µM) was found to be 0.536; in the experiment with EHT 1864 + Navitoclax (first compound 0.4 µM), 0.513; with EHT 1864 + Navitoclax (first compound 1.265 µM), 0.611; in the experiment with EHT 1864 + Navitoclax (first compound 4 µM), 0.233; in the experiment with EHT 1864 + Pemetrexed (first compound 0.04 µM) it was 0.28; with EHT 1864 + Pemetrexed (first compound 0.4 µM), 0.286. The relative viability in the experiment with EHT 1864 + Pemetrexed (first compound 1.265 µM) stood at 0.241; with EHT 1864 + Pemetrexed (first compound 4 µM) it was 0.255; in the experiment with EHT 1864 + Trametinib (first compound 0.04 µM), 0.365; in the experiment with EHT 1864 + Trametinib (first compound 0.4 µM), 0.544; with EHT 1864 + Trametinib (first compound 1.265 µM) it was 0.573; in the experiment with EHT 1864 + Trametinib (first compound 4 µM), 0.51.

In the case of NCI-H1944, the relative viability with EHT 1864 + Phenformin (first compound 0.04 µM) amounted to 0.233; with EHT 1864 + Phenformin (first compound 0.4 µM) it was 0.224; in the experiment with EHT 1864 + Phenformin (first compound 1.265 µM), 0.191; in the experiment with EHT 1864 + Phenformin (first compound 4 µM), 0.199; with EHT 1864 + Navitoclax (first compound 0.04 µM), 1.06; with EHT 1864 + Navitoclax (first compound 0.4 µM), 0.985. Further, the relative viability with EHT 1864 + Navitoclax (first compound 1.265 µM) amounted to 1.05; with EHT 1864 + Navitoclax (first compound 4 µM), 1.06; with EHT 1864 + Pemetrexed (first compound 0.04 µM), 0.669; with EHT 1864 + Pemetrexed (first compound 0.4 µM), 0.64; with EHT 1864 + Pemetrexed (first compound 1.265 µM), 0.58; in the experiment with EHT 1864 + Pemetrexed (first compound 4 µM) it was 0.693. Besides, the relative viability with EHT 1864 + Trametinib (first compound 0.04 µM) stood at 0.426; in the experiment with EHT 1864 + Trametinib (first compound 0.4 µM), 0.42; with EHT 1864 + Trametinib (first compound 1.265 µM) it was 0.39; in the experiment with EHT 1864 + Trametinib (first compound 4 µM), 0.387.

On to NCI-H23, for which the relative viability turned out to be 0.778 with EHT 1864 + Phenformin (first compound 0.04 µM); 0.477 with EHT 1864 + Phenformin (first compound 0.1265 µM); 0.784 with EHT 1864 + Phenformin (first compound 0.4 µM); 0.604 in the experiment with EHT 1864 + Phenformin (first compound 1.265 µM); 0.775 in the experiment with EHT 1864 + Phenformin (first compound 4 µM); 0.718 with EHT 1864 + Navitoclax (first compound 0.04 µM). For the same cell line, the relative viability was determined as 0.627 with EHT 1864 + Navitoclax (first compound 0.4 µM); 0.784 with EHT 1864 + Navitoclax (first compound 1.265 µM); 0.816 with EHT 1864 + Navitoclax (first compound 4 µM); 0.715 with EHT 1864 + Pemetrexed (first compound 0.04 µM); 0.549 with EHT 1864 + Pemetrexed (first compound 0.1265 µM); 0.632 in the experiment with EHT 1864 + Pemetrexed (first compound 0.4 µM). The relative viability amounted to 0.671 in the experiment with EHT 1864 + Pemetrexed (first compound 1.265 µM); 0.748 with EHT 1864 + Pemetrexed (first compound 4 µM); 0.347 with EHT 1864 + Trametinib (first compound 0.04 µM); 0.413 with EHT 1864 + Trametinib (first compound 0.1265 µM); 0.31 with EHT 1864 + Trametinib (first compound 0.4 µM); 0.396 with EHT 1864 + Trametinib (first compound 1.265 µM). In addition, the relative viability with EHT 1864 + Trametinib (first compound 4 µM) stood at 0.419.

As to HARA, the relative viability is 0.396 with EHT 1864 + Phenformin (first compound 0.04 µM); 0.483 in the experiment with EHT 1864 + Phenformin (first compound 0.1265 µM); 0.466 with EHT 1864 + Phenformin (first compound 0.4 µM); 0.351 with EHT 1864 + Phenformin (first compound 1.265 µM); 0.416 with EHT 1864 + Phenformin (first compound 4 µM); 1.11 with EHT 1864 + Navitoclax (first compound 0.04 µM). Moreover, the relative viability in the experiment with EHT 1864 + Navitoclax (first compound 0.1265 µM) was 1.15; in the experiment with EHT 1864 + Navitoclax (first compound 0.4 µM) it was 1.1; in the experiment with EHT 1864 + Navitoclax (first compound 1.265 µM) it was 1.19; with EHT 1864 + Navitoclax (first compound 4 µM) it was 0.996; with EHT 1864 + Pemetrexed (first compound 0.04 µM), 0.27; with EHT 1864 + Pemetrexed (first compound 0.4 µM), 0.267. Also, the relative viability with EHT 1864 + Pemetrexed (first compound 1.265 µM) amounted to 0.3; in the experiment with EHT 1864 + Pemetrexed (first compound 4 µM), 0.234; in the experiment with EHT 1864 + Trametinib (first compound 0.04 µM), 0.729; with EHT 1864 + Trametinib (first compound 0.4 µM) it was 0.908; with EHT 1864 + Trametinib (first compound 1.265 µM) it was 0.782; with EHT 1864 + Trametinib (first compound 4 µM), 1.14.

For the cell line NCI-H1792, the relative viability worked out at 0.256 with EHT 1864 + Phenformin (first compound 0.04 µM); 0.304 with EHT 1864 + Phenformin (first compound 1.265 µM); 0.368 with EHT 1864 + Phenformin (first compound 4 µM); 0.68 with EHT 1864 + Navitoclax (first compound 0.04 µM); 0.54 with EHT 1864 + Navitoclax (first compound 0.1265 µM); 0.648 with EHT 1864 + Navitoclax (first compound 0.4 µM). Also, the relative viability stood at 0.616 in the experiment with EHT 1864 + Navitoclax (first compound 1.265 µM); 0.718 in the experiment with EHT 1864 + Navitoclax (first compound 4 µM); 0.804 in the experiment with EHT 1864 + Pemetrexed (first compound 0.04 µM); 0.735 with EHT 1864 + Pemetrexed (first compound 0.4 µM); 0.776 with EHT 1864 + Pemetrexed (first compound 1.265 µM); 1.1 with EHT 1864 + Pemetrexed (first compound 4 µM). Besides, the relative viability was 0.432 with EHT 1864 + Trametinib (first compound 0.04 µM), 0.438 in the experiment with EHT 1864 + Trametinib (first compound 0.4 µM), 0.345 in the experiment with EHT 1864 + Trametinib (first compound 1.265 µM) and 0.456 with EHT 1864 + Trametinib (first compound 4 µM).

The values above are taken from the supplement of paper PMC10307832.
